From US20230265393A1, “COMPOSITION AND METHODS FOR PRODUCING ADULT LIVER ORGANOIDS” (Rutgers, the State University of New Jersey, priority 2021, published 2023)

Columns and labels:
Format in all cases: cell-based, human
[1] = tested on: HepG2 cells; assay: 3D organoid culture of HepG2 cells (HepGOs): organoid counts; settings: compared to serum-containing growth media (HepG2 GM) (FIG. 3B)
Source text: Well-differentiated hepatoma cell lines HepG2, PLC/PRF/5, and HuH7 were maintained as previously described. In initial studies, classical culture media was used, containing high glucose concentration (4.5 g/L) corresponding to systemic hyperglycemia. Low glucose concentrations corresponding to normoglycemia (1 g/L) were utilized in parallel to study the effects on cell proliferation. HepG2 cells were first cultured in monolayer. Once 80-90% confluence was reached the cells were collected and used to start the organoid culture. HepGOs were generated on 48 well tissue culture plates (Grenier™). The plates were left overnight at 37° C. before using them to plate the Matrigel™ matrix. Cells were plated at a concentration of approximately 40 cells per μL of Matrigel™. We used a 25 μL drop/well to form the organoid dome at the center and the organoid dome were overlaid with 250 μLs of human expansion medium (EM) with the multiple EM variations tested. The plates were then incubated for 7 days under standard tissue culture conditions (37° C. and 5% CO2). Media was changed every other day. After 7 days of expansion, the media was replaced with differentiation media (DM). The organoids were cultured for an additional 7 days, at which point the organoids were used for analysis.

[2] = tested on: primary hepatocytes; assay: 3D organoid culture of adult donor-derived primary hepatocytes (HepAOs): organoid formation and expansion; settings: single hepatocyte suspensions from adult donors, supplemented EM, over 2 weeks (FIG. 1E)
Experimental: Human hepatic cells were counted and seeded at a concentration of 100 cells per μL of the ECM Matrigel™ (Corning™). The cell-ECM mix were seeded on 24 well plates Greiner™) that had been incubated 24 hours prior at 37° C. A total of 50 μL of Matrigel™ were added to the center of each well to form a dome shaped chamber and incubated for 5-8 minutes at 37° C. before adding 500 μμL of isolation medium to each well. Media specifications and storage times are indicated.
After 4 days, the isolation medium was substituted for expansion medium (EM) containing 10 μM ROCK inhibitor (Y-27632). The EM was replenished three times per week.
After the first 6 days in culture, the ROCK inhibitor was removed from the media. The cells within the ECM mix were expanded for 14 days to form organoids. After 14 days, the media was supplemented with 25 ng/mL of BMP7, and the organoids were cultured for 5 days before replacing the media with hepatocyte differentiation medium (DM). The DM were replenished every 3 days. At day 7 of differentiation, the organoids were used for analyses. […]
We assessed the organoid-forming efficiency at one week in single cell derived organoids (FIG. 1B and FIG. 1C). […]

[3] = tested on: HepGOs; assay: Glucose production assay in HepGOs; settings: HepGOs expanded in EM+F+OSM, 24-hour starvation, 24 hours production (FIG. 7D)
Experimental: Prior to each glucose production assay, organoid cells were serum starved for 3 and 24 hours. The assay was done in 3D organoid culture media, containing no glucose or pyruvate. For substrate glucose production assays, the glucose production basal media (BM) were supplemented with either glycerol, glucagon, or a combination of both. Data were obtained by obtaining media from wells that contained 12-14 Matrigel™ droplets containing approximately 1,400 organoids. Glucose measurements were done enzymatically with a Glucose Assay Kit (Abcam™).
The HepGOs were starved for 3 or 24 hours and then allowed to produce glucose for 24 hours. The glucose production basal media (BM) was supplemented with either glycerol, glucagon, or a combination of the two. Data was obtained pooled organoids with a total of ˜70,000 organoid cells. The scale bar is 100 μm. (**p<0.01, *p<0.05).

[4] = tested on: PCK1; assay: Q-PCR expression of PCK1 in organoids; settings: fresh or frozen and re-expanded organoids, EM conditions C3-C5 (FIG. 5)
Experimental: (§1) RNA was first extracted from the differentiated organoids using Trizol™. RNA was used for cDNA synthesis using the iScript Kit (BioRad™). Quantitative PCR (Q-PCR) was performed for targets of interest including G6PC, PCK1, and AFP using Bio-Rad™ CFX96. Bio Rad™'s SYBR Green (SG), a asymmetrical cyanine dye used as a nucleic acid stain in Q-PCR super mix was used with the target-specific primers. See Table 3, below for a description of the primers used for hepatocyte expression. The data was analyzed using Excel™ and Prism 8™.
(§2) HepGOs were expanded for one month, and then media were supplemented with 25 ng/mL BMP7 for 5 days before replacing the media with hepatocyte DM for one week. The data are from experiments that were done in at least in duplicate with three replicates per condition and were normalized to the endogenous control (β-Actin) and HepG2 GM cultures. The scale bar is 100 μm.

[5] = tested on: G6PC; assay: Q-PCR expression of G6PC in organoids; settings: fresh or frozen and re-expanded organoids, EM conditions C3-C5 (FIG. 5)
Experimental: as §1, §2

Molecule: Cc1cccc(-c2nn(C(=S)Nc3ccccc3)cc2-c2ccnc3ccccc23)n1 [A8301]
- HepGO number [1]: significantly limited the 3D culture and expansion of HepG2 cells
- number of organoids formed / expansion [2]: showed the least number of organoids being formed

Molecule: glucagon
- glucose production [3]: significantly enhanced glucose production

B1: BMP7: bone morphogenetic protein 7 (protein, UniProt P18075 293-431, looked up)
Bone morphogenetic protein 7: STGSKQRSQNRSKTPKNQEALRMANVAENSSSDQRQACKKHELYVSFRDLGWQDWIIAPEGYAAYYCEGECAFPLNSYMNATNHAIVQTLVHFINPETVPKPCCAPTQLNAISVLYFDDSSNVILKKYRNMVVRACGCH
- HepGO number [1]: slightly but not significantly improved HepGO number

B2: OSM: oncostatin M, a member of the IL-6 family of cytokines (protein, UniProt P13725 26-221, looked up)
Oncostatin-M: AAIGSCSKEYRVLLGQLQKQTDLMQDTSRLLDPYIRIQGLDVPKLREHCRERPGAFPSEETLRGLGRRGFLQTLNATLGCVLHRLADLEQRLPKAQDLERSGLNIEDLEKLQMARPNILGLRNNIYCMAQLLDNSDTAEPTKAGRGASQPPTPTPASDAFQRKLEGCRFLHGYHRFMHSVGRVFSKWGESPNRSRR
- induction of PCK1 expression [4]: tend to decrease at one month post differentiation
- induction of G6PC expression [5]: tend to decrease at one month post differentiation
